Assay results as given in patent publication US20240425523A1, “Compounds for the Degradation of EGFR Kinase” (Beigene Switzerland GMBH, priority 2023, published 2024).
pIC50: −log10 of the molar value.

What was measured:
Type in all cases: cell-based
[1] = target: T1, EGFR L858R (BaF3-L858R cells) (Homo sapiens, UniProt P00533, L858R); assay: Cell degradation of EGFR, HTRF assay, BaF3-L858R cells; details: 16 h treatment; for DC50: EGFR degradation
T1 construct: host or cells: BaF3
Procedure, shortened: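 BaF3-L858R cells treated 16 h at 37° C, 5% CO2 with compound (top 10 uM final, 5-fold, 8 doses, 0.1% DMSO). DC50 from four-parameter fit; Dmax is maximum percent degradation.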

[2] = target: T2, EGFR-L858R/C797S (H1975-clone #8 cells) (Homo sapiens, UniProt P00533, C797S/L858R); assay: Cell degradation of EGFR, HTRF assay, H1975-clone#8 (L858R/C797S) cells; details: 16 h treatment; for DC50: EGFR degradation
T2 construct: expressed in transfected cells; host or cells: H1975 (endogenous EGFR knocked out, clone #8)

[3] = target: T3, p-EGFR L858R (BaF3-L858R cells) (Homo sapiens, UniProt P00533, L858R); assay: Cell p-EGFR inhibition assay, HTRF, BaF3-L858R cells; details: 16 h treatment; for Imax (%): maximum percentage of pEGFR inhibition; for pIC50: pEGFR inhibition
T3 construct: host or cells: BaF3
Procedure, shortened: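 BaF3-L858R cells treated 16 h at 37 °C, 5% CO2 with compound from 10 uM top, 5-fold dilutions, 8 doses, in 0.1% DMSO medium. Lysates read overnight by HTRF p-EGFR antibodies; IC50 fitted to four-parameter curve against DMSO high control.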

[4] = target: p-EGFR Del19/C797S (H1975-clone #23 cells) (Homo sapiens, UniProt P00533); assay: Cell p-EGFR inhibition assay, HTRF, H1975-clone#23 (DEL19/C797S) cells; details: 16 h treatment; for Imax (%): maximum percentage of pEGFR inhibition; for pIC50: pEGFR inhibition
Procedure, shortened: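 Phospho-EGFR read by overnight HTRF on lysates, normalized to DMSO-treated high control; IC50, Hill slope and Imax fitted. Compounds were applied for 16 h (10 uM top, 5-fold steps, 8 doses) to an H1975 single clone carrying only exogenous Del19/C797S EGFR after sgRNA knockout of endogenous copies.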

[5] = maximum percentage of degradation

| Compound | DC50 [1] [nM] | Dmax [1, 5] [%] | DC50 [2] [nM] | Dmax [2, 5] [%] | Imax (%) [3] [%] | pIC50 [3] | Imax (%) [4] [%] | pIC50 [4] | Dmax (%) [1, 5] [%] | Dmax (%) [2, 5] [%] |
| --- | --- | --- | --- | --- | --- | --- | --- | --- | --- | --- |
| COC[C@@H]1CN(c2cc3c(cc2C)N/C2=N\C(=O)c4cc(C)nc(c4)-c4cnn(C)c4OC[C@H]4CC[C@H](C4)CN23)CCN1C1CCN(c2cc(F)c([C@H]3CCC(=O)NC3=O)c(F)c2)CC1 [Example 96, (R)-3-(2,6-difluoro-4-(4-((S)-2-(methoxymethyl)-4-((7R,7^3S,E)-1^1,2^6,5^5-trimethyl-3-oxo-5^2,5^3-dihydro-1^1H,5^1H-9-oxa-4-aza-5(2,1)-benzo[d]imidazola-2(2,4)-pyridina-1(4,5)-pyrazola-7(1,3)-cyclopentanacyclononaphane-5^6-yl)piperazin-1-yl)piperidin-1-yl)phenyl)piperidine-2,6-dione] | 3.41 | 86.6 | 3.15 | 82.7 | 100.3 | 8.20 | 100.9 | 9.10 |  |  |
| 3-(5-(4-((S)-4-((7^1R,7^3S,E)-1^1,2^6-dimethyl-3-oxo-5^2,5^3-dihydro-1^1H,5^1H-9-oxa-4-aza-5(2,1)-benzo[d]imidazola-2(2,4)-pyridina-1(4,5)-pyrazola-7(1,3)-cyclopentanacyclononaphane-5^6-yl)-2-methylpiperazin-1-yl)piperidin-1-yl)-6-methylpyridin-2-yl)piperidine-2,6-dione [Example 214] | 0.65 |  | 0.61 |  | 100.54 | 8.48 | 100.03 | 9.22 | 82.61 | 77.32 |
| Cc1cc2cc(n1)-c1c(C)nn(C)c1OC[C@H]1CCC(C1)CN1/C(=N/C2=O)Nc2ccc(N3CCC(N(C)C4CCN(c5cc(F)c([C@H]6CCC(=O)NC6=O)c(F)c5)CC4)CC3)cc21 [Example 136, (R)-3-(2,6-difluoro-4-(4-(methyl(1-((7^1R,7^3S,E)-1^1,1^3,2^6-trimethyl-3-oxo-5^2,5^3-dihydro-1^1H,5^1H-9-oxa-4-aza-5(2,1)-benzo[d]imidazola-2(2,4)-pyridina-1(4,5)-pyrazola-7(1,3)-cyclopentanacyclononaphane-5^6-yl)piperidin-4-yl)amino)piperidin-1-yl)phenyl)piperidine-2,6-dione] | 3.52 | 81.1 | 0.152 | 76.1 | 104.73 | 8.05 | 103.49 | 8.84 |  |  |
| Cc1cc2cc(n1)-c1c(C)nn(C)c1OC[C@H]1CC[C@H](C1)CN1/C(=N/C2=O)Nc2ccc(N3CCN(CCC4CCN(c5cc(F)c([C@H]6CCC(=O)NC6=O)c(F)c5)CC4)CC3)cc21 [Example 183, (R)-3-(2,6-difluoro-4-(4-(2-(4-((7^1R,7^3S,E)-1^1,1^3,2^6-trimethyl-3-oxo-5^2,5^3-dihydro-1^1H,5^1H-9-oxa-4-aza-5(2,1)-benzo[d]imidazola-2(2,4)-pyridina-1(4,5)-pyrazola-7(1,3)-cyclopentanacyclononaphane-5^6-yl)piperazin-1-yl)ethyl)piperidin-1-yl)phenyl)piperidine-2,6-dione] | 5.3 | 91.6 | 5.83 | 91.2 | 98.21 | 8.27 | 99.41 | 8.14 |  |  |
| COC[C@@H]1CN(c2ccc3c(c2)N2CC4CC[C@H](COc5c(cnn5C)-c5cc(cc(C)n5)C(=O)/N=C/2N3)C4)CCN1C1CCN(c2cc(F)c(C3CCC(=O)NC3=O)nc2C)CC1 (stereo partly drawn) [Example 70, 3-(5-(4-((S)-4-((7^1R,7^3S,E)-1^1,2^6-dimethyl-3-oxo-5^2,5^3-dihydro-1^1H,5^1H-9-oxa-4-aza-5(2,1)-benzo[d]imidazola-2(2,4)-pyridina-1(4,5)-pyrazola-7(1,3)-cyclopentanacyclononaphane-5^6-yl)-2-(methoxymethyl)piperazin-1-yl)piperidin-1-yl)-3-fluoro-6-methylpyridin-2-yl)piperidine-2,6-dione] | 3.78 | 87.7 | 4.11 | 73.5 | 102.1 | 7.96 | 99.2 | 8.85 |  |  |

Now from value to compound, other results behind:

| DC50 [1] [nM] | Dmax [1, 5] [%] | DC50 [2] [nM] | Dmax [2, 5] [%] | Imax (%) [3] [%] | pIC50 [3] | Imax (%) [4] [%] | pIC50 [4] | Compound | Dmax (%) [1, 5] [%] | Dmax (%) [2, 5] [%] |
| --- | --- | --- | --- | --- | --- | --- | --- | --- | --- | --- |
| 2.11 | 87.4 | 2.73 | 88 | 95.16 | 8.32 | 100.92 | 9.10 | COC[C@H]1CN(c2ccc3c(c2)N2C[C@@H]4CC[C@H](COc5c(c(C)nn5CCO)-c5cc(cc(C)n5)C(=O)/N=C/2N3)C4)CCN1C1CCN(c2cc(F)c([C@H]3CCC(=O)NC3=O)c(F)c2)CC1 [Example 156, (R)-3-(2,6-difluoro-4-(4-((R)-4-((7^1R,7^3S,E)-1^1-(2-hydroxyethyl)-1^3,2^6-dimethyl-3-oxo-5^2,5^3-dihydro-1^1H,5^1H-9-oxa-4-aza-5(2,1)-benzo[d]imidazola-2(2,4)-pyridina-1(4,5)-pyrazola-7(1,3)-cyclopentanacyclononaphane-5^6-yl)-2-(methoxymethyl)piperazin-1-yl)piperidin-1-yl)phenyl)piperidine-2,6-dione] |  |  |
| 2.47 | 77 | 2.3 | 74.6 | 94.3 | 7.74 | 100.8 | 9.22 | Cc1cc2cc(n1)-c1cnn(C)c1OC[C@H]1CCC(C1)CN1/C(=N/C2=O)Nc2ccc(N3CCN(C4CCN(c5cc(F)c(C6CCC(=O)NC6=O)c(F)c5)CC4)[C@@H](C)C3)cc21 (stereo partly drawn) [Example 119, (R)-3-(4-(4-((S)-4-((7^1R,7^3S,E)-1^1,2^6-dimethyl-3-oxo-5^2,5^3-dihydro-1^1H,5^1H-9-oxa-4-aza-5(2,1)-benzo[d]imidazola-2(2,4)-pyridina-1(4,5)-pyrazola-7(1,3)-cyclopentanacyclononaphane-5^6-yl)-2-methylpiperazin-1-yl)piperidin-1-yl)-2,6-difluorophenyl)piperidine-2,6-dione] |  |  |
| 1.73 | 88.1 | 5.24 | 82.4 | 91.7 | 8.42 | 99.9 | 8.80 | COC[C@@H]1CN(c2ccc3c(c2)N2CC4CC[C@H](COc5c(c(C)nn5C)-c5cc(cc(C)n5)C(=O)/N=C/2N3)C4)CCN1C1CCN(c2cc(F)c([C@H]3CCC(=O)NC3=O)c(F)c2)CC1 [Example 80, (R)-3-(2,6-difluoro-4-(4-((S)-2-(methoxymethyl)-4-((7R,7^3S,E)-1^1,1^3,2^6-trimethyl-3-oxo-5^2,5^3-dihydro-1^1H,5^1H-9-oxa-4-aza-5(2,1)-benzo[d]imidazola-2(2,4)-pyridina-1(4,5)-pyrazola-7(1,3)-cyclopentanacyclononaphane-5^6-yl)piperazin-1-yl)piperidin-1-yl)phenyl)piperidine-2,6-dione] |  |  |
| 2.79 | 92.7 | 1.19 | 88.7 | 94.91 | 8.73 | 96.95 | 9.60 | Cc1cc2cc(n1)-c1c(C)nn(C)c1OC[C@H]1CC[C@H](C1)CN1/C(=N/C2=O)Nc2ccc(N3CCN(C4CCN(c5cc(F)c([C@H]6CCC(=O)NC6=O)c(F)c5)CC4)C(=O)C3)cc21 [Example 164, (R)-3-(2,6-difluoro-4-(4-(2-oxo-4-((7^1R,7^3S,E)-1^1,1^3,2^6-trimethyl-3-oxo-5^2,5^3-dihydro-1^1H,5^1H-9-oxa-4-aza-5(2,1)-benzo[d]imidazola-2(2,4)-pyridina-1(4,5)-pyrazola-7(1,3)-cyclopentanacyclononaphane-5^6-yl)piperazin-1-yl)piperidin-1-yl)phenyl)piperidine-2,6-dione] |  |  |
| 3.37 | 71.6 | 0.83 | 73.9 | 99.6 | 8.21 | 101.2 | 9.10 | Cc1cc2cc(n1)-c1cnn(C)c1OC[C@H]1CCC(C1)CN1/C(=N/C2=O)Nc2ccc(N3CCN(C4CCN(c5cc(F)c([C@H]6CCC(=O)NC6=O)c(F)c5)CC4)C[C@@H]3CO)cc21 [Example 94, (R)-3-(4-(4-((R)-4-((7^1R,7^3S,E)-1^1,2^6-dimethyl-3-oxo-5^2,5^3-dihydro-1^1H,5^1H-9-oxa-4-aza-5(2,1)-benzo[d]imidazola-2(2,4)-pyridina-1(4,5)-pyrazola-7(1,3)-cyclopentanacyclononaphane-5^6-yl)-3-(hydroxymethyl)piperazin-1-yl)piperidin-1-yl)-2,6-difluorophenyl)piperidine-2,6-dione] |  |  |
